Reference: patent US10519114B2, “Peptidomimetics and methods of using the same” (The Regents of the University of Michigan, priority 2016, dated 2019)

What was measured:
[1] = molecular target: T1, rat μ (C6-MOR) opioid receptor (Rattus norvegicus, UniProt P33535); assay: Radioligand binding assay, [3H]diprenorphine displacement, MOR; details: displacement of 0.2 nM [3H]diprenorphine, C6-MOR membranes; mean ± standard error
T1 construct: expressed in transfected cells
Experimental: (§1) In Vitro Pharmacology-Cell Lines and Membrane Preparations. All tissue culture reagents were purchased from Gibco Life Sciences (Grand Island, N.Y., U.S.). C6-rat glioma cells stably transfected with a rat μ (C6-MOR) or rat δ (C6-DOR) opioid receptor20 and Chinese hamster ovary (CHO) cells stably expressing a human K (CHO-KOR) opioid receptor21 were used for all in vitro assays. Cells were grown to confluence at 37° C. in 5% CO2 in Dulbecco's modified Eagle medium containing 10% fetal bovine serum and 5% penicillin/streptomycin. Membranes were prepared by washing confluent cells three times with ice cold phosphate buffered saline (0.9% NaCl, 0.61 mM Na2HPO4, 0.38 mM KH2PO4, pH 7.4). Cells were detached from the plates by incubation in warm harvesting buffer (20 mM HEPES, 150 mM NaCl, 0.68 mM EDTA, pH 7.4) and pelleted by centrifugation at 200 g for 3 min. The cell pellet was suspended in ice-cold 50 mM Tris-HCl buffer, pH 7.4, and homogenized with a Tissue Tearor (Biospec Products, Inc., Bartlesville, Okla., U.S.) for 20 s at setting 4. The homogenate was centrifuged at 20 000 g for 20 min at 4° C., and the pellet was rehomogenized in 50 mM Tris-HCl with a Tissue Tearor for 10 s at setting 2, followed by recentrifugation. The final pellet was resuspended in 50 mM Tris-HCl and frozen in aliquots at […]. Protein concentration was determined via Bradford assay using bovine serum albumin as the standard.
(§2) Radioligand Binding Assays. Radioactive compounds were purchased from Perkin-Elmer (Waltham, Mass., U.S.). Opioid ligand binding assays were performed using competitive displacement of 0.2 nM [3H]diprenorphine (250 μCi, 1.85 TBq/mmol) by the test compound from membrane preparations containing opioid receptors. The assay mixture, containing membrane suspension (20 μg protein/tube) in 50 mM Tris-HCl buffer (pH 7.4), [3H]diprenorphine, and various concentrations of test peptide, was incubated at room temperature for 1 h to allow binding to reach equilibrium. The samples were rapidly filtered through Whatman GF/C filters using a Brandel harvester (Brandel, Gaithersburg, Md., U.S.) and washed three times with 50 mM Tris-HCl buffer. The radioactivity retained on dried filters was determined by liquid scintillation counting after saturation with EcoLume liquid scintillation cocktail in a Wallac 1450 MicroBeta (Perkin-Elmer, Waltham, Mass., U.S.). Nonspecific binding was determined using 10 μM naloxone. Inhibitory constant (Ki) values were calculated using nonlinear regression analysis to fit a logistic equation to the competition data using GraphPad Prism, version 5.01, for Windows (GraphPad Software Inc., La Jolla, Calif.). The results presented are the mean±standard error from at least three separate assays performed in duplicate.

[2] = molecular target: T2, human κ (CHO-KOR) opioid receptor (Homo sapiens, UniProt P41145); assay: Stimulation of [35S]GTPγS binding, KOR; type: biochemical; details: for Emax / % stimulation KOR: [35S]GTPγS maximal stimulation compared with 10 μM standard U-69,593; for EC50 / EC50 (nm) KOR: [35S]GTPγS binding, CHO-KOR membranes, mean ± standard error
T2 construct: expressed in transfected cells
Experimental: as §1
(§3) Stimulation of [^35S]GTPyS Binding. Agonist stimulation of [35S]guanosine 5′-O-[γ-thio]triphosphate ([^35S]GTPγS, 1250 Ci, 46.2 TBq/mmol) binding was measured as described previously Briefly, membranes (10-20 μg of protein/tube) were incubated 1 h at room temperature in GTPyS buffer (50 mM Tris-HCl, 100 mM NaCl, 5 mM MgCl2, pH 7.4) containing 0.1 nM [^35S]GTPγS, 30 μM guanosine diphosphate (GDP), and varying concentrations of test peptides. Peptide stimulation of [^35S]GTPyS was compared with 10 μM standard compounds [D-Ala^2,N-MePhe^4,Gly-ol]encephalin (DAMGO) at MOR, D-Pen^2,5-enkephalin (DPDPE) at DOR, or […] at KOR. The reaction was terminated by rapidly filtering through GF/C filters and washing 10 times with GTPyS buffer, and retained radioactivity was measured as described above. The results presented are the mean±standard error from at least three separate assays performed in duplicate; maximal stimulation was determined using nonlinear regression analysis with GraphPad Prism (GraphPad Software Inc., La Jolla, Calif.).

[3] = molecular target: T3, rat δ (C6-DOR) opioid receptor (Rattus norvegicus, UniProt P33533); assay: Radioligand binding assay, [3H]diprenorphine displacement, DOR; details: displacement of 0.2 nM [3H]diprenorphine, C6-DOR membranes; mean ± standard error
T3 construct: expressed in transfected cells
Experimental: as §1, §2

[4] = molecular target: T2, human κ (CHO-KOR) opioid receptor; assay: Radioligand binding assay, [3H]diprenorphine displacement, KOR; details: displacement of 0.2 nM [3H]diprenorphine, CHO-KOR membranes; mean ± standard error
Experimental: as §1, §2

[5] = molecular target: T3, rat δ (C6-DOR) opioid receptor; assay: Stimulation of [35S]GTPγS binding, DOR; type: biochemical; details: for Emax / % stimulation DOR: [35S]GTPγS maximal stimulation compared with 10 μM standard DPDPE; for EC50 / EC50 (nm) DOR: [35S]GTPγS binding, C6-DOR membranes, mean ± standard error
Experimental: as §1, §3

[6] = molecular target: T1, rat μ (C6-MOR) opioid receptor; assay: Stimulation of [35S]GTPγS binding, MOR; type: biochemical; details: for Emax: [35S]GTPγS maximal stimulation compared with 10 μM standard DAMGO; for EC50: [35S]GTPγS binding, C6-MOR membranes, mean ± standard error
Experimental: as §1, §3

T1 sequence (P33535 whole entry): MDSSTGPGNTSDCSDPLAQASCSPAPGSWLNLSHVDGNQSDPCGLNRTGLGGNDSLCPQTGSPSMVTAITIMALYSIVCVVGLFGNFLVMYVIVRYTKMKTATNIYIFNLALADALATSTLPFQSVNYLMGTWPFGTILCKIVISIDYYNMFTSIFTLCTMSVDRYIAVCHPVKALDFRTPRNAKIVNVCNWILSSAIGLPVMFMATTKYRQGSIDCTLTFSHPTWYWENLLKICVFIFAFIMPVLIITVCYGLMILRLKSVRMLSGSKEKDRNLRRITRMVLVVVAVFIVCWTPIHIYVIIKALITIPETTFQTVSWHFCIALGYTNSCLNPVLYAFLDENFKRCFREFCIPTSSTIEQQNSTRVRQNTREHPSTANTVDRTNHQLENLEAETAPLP
T2 sequence (P41145 whole entry): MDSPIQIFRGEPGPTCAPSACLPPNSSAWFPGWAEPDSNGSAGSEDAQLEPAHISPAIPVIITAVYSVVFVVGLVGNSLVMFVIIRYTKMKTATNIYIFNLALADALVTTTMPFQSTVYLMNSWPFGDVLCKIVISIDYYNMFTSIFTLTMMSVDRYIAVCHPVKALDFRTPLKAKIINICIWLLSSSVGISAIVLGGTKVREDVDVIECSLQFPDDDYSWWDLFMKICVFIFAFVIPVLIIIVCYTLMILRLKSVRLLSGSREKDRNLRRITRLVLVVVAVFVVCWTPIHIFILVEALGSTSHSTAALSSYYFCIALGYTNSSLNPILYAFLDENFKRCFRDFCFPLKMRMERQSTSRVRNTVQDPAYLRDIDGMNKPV
T3 sequence (P33533 whole entry): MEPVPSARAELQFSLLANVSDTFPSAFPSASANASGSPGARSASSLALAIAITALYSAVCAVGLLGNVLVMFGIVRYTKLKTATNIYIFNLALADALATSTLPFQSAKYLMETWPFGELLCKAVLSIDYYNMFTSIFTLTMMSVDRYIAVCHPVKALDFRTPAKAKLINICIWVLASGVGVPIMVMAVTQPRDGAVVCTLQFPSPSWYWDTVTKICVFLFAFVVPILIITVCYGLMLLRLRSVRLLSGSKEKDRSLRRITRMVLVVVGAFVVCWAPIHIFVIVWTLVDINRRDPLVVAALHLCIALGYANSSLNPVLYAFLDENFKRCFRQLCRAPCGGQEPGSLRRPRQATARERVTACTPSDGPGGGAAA

Compound	Ki [1] [nM]	Emax [2] [%]	Ki [3] [nM]	Ki [4] [nM]	Emax [5] [%]	Emax [6] [%]	EC50 [2] [nM]	EC50 [5] [nM]	EC50 [6] [nM]	EC50 (nm) DOR [5]	% stimulation DOR [5]	EC50 (nm) KOR [2]	% stimulation KOR [2]
Cc1cc(O)cc(C)c1C[C@H](N)C(=O)N[C@H]1CCNc2ccc(Cc3ccc(F)cc3)cc21 [Compound 1010]	10	0	190	90	12	58	–	–	–	–	–	–	–
CCCCCCc1ccc2c(c1)[C@H](NC(=O)[C@@H](N)Cc1c(C)cc(O)cc1C)CCN2 [Compound 1011]	0.13 ± 0.02	34.6 ± 1.11	5.89 ± 0.76	15.1 ± 5.7	2.5 ± 2.5	35.9 ± 5.28	773 ± 26.5	1.7	2.41 ± 0.81	–	–	–	–
CCCCCCc1ccc2c(c1)[C@@H](NC(=O)[C@@H](N)Cc1c(C)cc(O)cc1C)CCN2 [Compound 1012]	297 ± 72	0	1240 ± 438	3900	22	18	–	> 10000	> 1000	–	–	–	–
CCCCCc1ccc2c(c1)[C@H](NC(=O)[C@@H](N)Cc1c(C)cc(O)cc1C)CCN2 [Compound 1013]	0.22 ± 0.09	23.7 ± 0.83	8.81 ± 2.89	22.5 ± 10.3	0	20.2 ± 7.11	543 ± 148	–	12 ± 5.77	–	–	–	–
Cc1cc(O)cc(C)c1C[C@H](N)C(=O)N[C@@H]1C[C@@H](C)Nc2ccc(Cc3ccccc3)cc21 [Compound 1014]	1.24 ± 0.5	28.9 ± 12.3	87.2 ± 56.2	238 ± 21.7	44.9 ± 8.25	87.8 ± 2	4070	627 ± 88.9	8.93 ± 4	–	–	–	–
Cc1cc(O)cc(C)c1C[C@H](N)C(=O)N(C1CC1)[C@@H]1CCNc2ccc(Cc3ccccc3)cc21 [Compound 1015]	25.6 ± 9.83	-1.84 ± 1.83	23.4 ± 10.9	58.9 ± 28.5	19.5 ± 2.83	15.8 ± 3.75	–	149 ± 42	131 ± 21.2	–	–	–	–
Cc1cc(O)cc(C)c1C[C@H](N)C(=O)N(C1CC1)C1CCNc2ccc(Cc3ccccc3)cc21 (some centres unmarked) [Compound 1016]	5.33 ± 2.43	-0.01 ± 0.01	52.5 ± 17.8	28.6 ± 7.24	0.82 ± 3.63	40.1 ± 10.7	–	–	28.4 ± 4.4	–	–	–	–
Cc1cc(O)cc(C)c1C[C@H](N)C(=O)NC1CCNc2ccc(Oc3ccccc3)cc21 (some centres unmarked) [Compound 1017]	0.42 ± 0.04	23.6	13.9 ± 6.7	65.5 ± 9.66	9.8 ± 5.49	68 ± 2.33	957	108 ± 53.3	14.9 ± 5.37	–	–	–	–
CC(=O)N1CC[C@@H](NC(=O)[C@@H](N)Cc2c(C)cc(O)cc2C)c2cc(Oc3ccccc3)ccc21 [Compound 1019]	0.1 ± 0.02	37.3	4.21 ± 1.26	32.98 ± 0.1	15.8	76.6 ± 2.66	1080	222	6.49 ± 3.21	–	–	–	–
CC(=O)N1CC[C@@H](NC(=O)[C@@H](N)Cc2c(C)cc(O)cc2C)c2cc(Oc3ccc(Cl)cc3)ccc21 [Compound 1026]	0.1 ± 0.03	47.3	3.1 ± 0.69	45.5 ± 6.67	0	61.2 ± 6.93	1820	–	7.01 ± 1.49	–	–	–	–
CC(=O)N1CC[C@@H](NC(=O)[C@@H](N)Cc2c(C)cc(O)cc2C)c2cc(Oc3cccc(Cl)c3)ccc21 [Compound 1027]	0.05 ± 0.01	55.1	5.03 ± 0.29	21	7.42 ± 5.57	72.2 ± 2.41	791	431 ± 216	8.07 ± 4.81	–	–	–	–
Cc1cc(O)cc(C)c1C[C@H](N)C(=O)N[C@@H]1CCNc2ccc(Cc3c(Cl)cccc3Cl)cc21 [Compound 1032]	0.08 ± 0.01	0	4.61 ± 0.06	4.85 ± 0.66	–	33.6	–	–	2040	dns	dns	–	–
Cc1cc(C(N)=O)cc(C)c1C[C@H](N)C(=O)N[C@@H]1CCNc2ccc(Cc3ccccc3)cc21 [Compound 1048]	0.6 ± 0.12	–	32.3 ± 7.57	170 ± 49.1	24.5 ± 3.25	97.9 ± 4.71	–	1590 ± 738	9.2 ± 4.58	–	–	dns	dns
Cc1ccc2c(c1)CN(Cc1ccc3c(c1)[C@H](NC(=O)[C@@H](N)Cc1c(C)cc(O)cc1C)CCN3)CC2 [Compound 1049]	0.17 ± 0.06	–	23.3 ± 2.51	11.9 ± 6.13	–	111 ± 4.65	–	–	0.35 ± 0.11	dns	dns	dns	dns
Cc1cc(O)cc(C)c1C[C@H](N)C(=O)N[C@@H]1CCNc2ccc(Cc3ccc4c(c3)OCCO4)cc21 [Compound 1050]	0.35 ± 0.11	–	5.48 ± 0.81	116 ± 65.1	–	87.5 ± 12	–	–	5.54 ± 0.12	dns	dns	dns	dns
Cc1cc(O)cc(C)c1C[C@H](N)C(=O)N[C@@H]1CCNc2ccc(CN3CCC[C@H]4CCCC[C@@H]43)cc21 [Compound 1051]	0.18 ± 0.03	–	9.5 ± 1.22	7.03 ± 1.36	–	36.2 ± 8.14	–	–	1.22 ± 0.07	dns	dns	dns	dns
Cc1cc(O)cc(C)c1C[C@H](N)C(=O)N[C@@H]1CCNc2ccc(S(=O)(=O)c3ccccc3)cc21 [Compound 1052]	3.01 ± 1.87	38.5	2.92 ± 0.41	26 ± 7.12	–	68.9 ± 10.3	1310	–	12.9 ± 1.35	dns	dns	–	–
Cc1cc(O)cc(C)c1C[C@H](N)C(=O)N[C@@H]1CCNc2ccc(Sc3ccccc3)cc21 [Compound 1053]	0.45 ± 0.11	22.4	5.08 ± 0.52	10.8 ± 6.24	–	51.6 ± 6.43	1120	–	4.67 ± 1.44	dns	dns	–	–
Cc1cc(O)cc(C)c1C[C@H](N)C(=O)N[C@@H]1CCNc2ccc(CN3CCc4ccc(F)cc4C3)cc21 [Compound 1054]	0.17 ± 0.02	–	16.7 ± 2.47	9.63 ± 0.4	–	105 ± 4.56	108	25.9 ± 16.9	0.5 ± 0.05	–	dns	–	dns
